Columns and labels:
JAK3 = molecular target: T1, JAK3 (Homo sapiens, UniProt P52333); assay: Kinase inhibition ELISA, JAK3; type: biochemical; conditions: for inhibition at 10 µM: 10 μM test compound, 150 μM ATP; for IC50: ten concentration points
T1 sequence (P52333 1-1124): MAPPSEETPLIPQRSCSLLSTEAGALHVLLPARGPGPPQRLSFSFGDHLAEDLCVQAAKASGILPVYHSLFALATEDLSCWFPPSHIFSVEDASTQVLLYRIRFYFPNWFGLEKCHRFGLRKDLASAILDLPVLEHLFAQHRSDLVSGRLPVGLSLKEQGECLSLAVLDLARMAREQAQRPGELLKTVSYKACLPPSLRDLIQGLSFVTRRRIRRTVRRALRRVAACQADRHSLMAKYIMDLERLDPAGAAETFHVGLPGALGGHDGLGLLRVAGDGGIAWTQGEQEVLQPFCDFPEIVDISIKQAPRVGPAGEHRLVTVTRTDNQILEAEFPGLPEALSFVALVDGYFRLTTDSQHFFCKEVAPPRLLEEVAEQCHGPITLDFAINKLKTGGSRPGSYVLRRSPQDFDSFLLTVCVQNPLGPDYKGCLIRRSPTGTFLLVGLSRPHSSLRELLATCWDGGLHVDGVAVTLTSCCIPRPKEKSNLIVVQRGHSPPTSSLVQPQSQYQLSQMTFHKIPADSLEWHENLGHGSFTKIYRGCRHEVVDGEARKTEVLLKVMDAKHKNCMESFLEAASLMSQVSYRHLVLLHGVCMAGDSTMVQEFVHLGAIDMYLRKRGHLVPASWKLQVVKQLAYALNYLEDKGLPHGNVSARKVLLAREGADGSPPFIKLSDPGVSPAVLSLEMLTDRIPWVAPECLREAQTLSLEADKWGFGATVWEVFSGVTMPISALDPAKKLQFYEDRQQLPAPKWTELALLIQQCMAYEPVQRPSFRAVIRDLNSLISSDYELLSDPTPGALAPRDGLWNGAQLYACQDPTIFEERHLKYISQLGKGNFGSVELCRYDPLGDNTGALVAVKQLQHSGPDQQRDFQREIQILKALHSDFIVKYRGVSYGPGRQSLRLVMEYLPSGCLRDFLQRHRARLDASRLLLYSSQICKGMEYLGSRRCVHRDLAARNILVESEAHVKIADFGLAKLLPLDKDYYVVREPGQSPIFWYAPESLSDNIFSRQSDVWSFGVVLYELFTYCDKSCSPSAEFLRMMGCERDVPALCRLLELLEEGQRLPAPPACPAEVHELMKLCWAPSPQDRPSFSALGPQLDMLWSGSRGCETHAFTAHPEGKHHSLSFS
Description: (§1) Study of inhibitory activity. The kinase activity was determined by enzyme-linked immunosorbent assay (ELISA) in polypropylene plates (Costar, 3363) in reaction buffer (20 mM HEPES, pH 7.5, 15 mM MgCl2, 2 mM DTT, 0.2 mM Na3VO4, 0.005% Triton X-100) for 60 min at 30 °C with vigorous stirring. The final concentration of the reaction components: 0.05 μg mL^–1 of the corresponding kinase, 5 nM Histon H3 biotinylated substrate (1–21) (Anaspec, 61702), 150 μM ATP (Sigma, A6419), 10 μM test compound, 5% DMSO. The enzymatic reaction was stopped with a buffer containing 20 mM HEPES (Sigma, H4034), pH 7.5, and 150 mM EDTA (Sigma, E5513). Further, to detect the phosphorylated substrate, the reaction mixture was transferred to pre-prepared plates (Nunc, 468667) coated with neutravidin (1 ng per well; Pierce, 31000) and treated with bovine serum albumin (BSA) to block non-specific binding sites. Incubation was carried out for 1 h at room temperature. After washing the plates three times with phosphate buffer saline (PBS, pH 7.4) with Tween-20, they were incubated sequentially with anti-phospho-Histon H3 antibodies (0.3 ng μL^–1; Millipore, 04-746) and with specific antibodies conjugated with an enzyme-label (peroxidase) Anti-rabbit IgG, HRP-linked Antibody (titer 1/5000; Cell Signaling, 7074). After completion of each incubation step (60 min at room temperature (~20 °C) and continuous stirring), the plates were washed three times from unbound antibody molecules with a PBS solution with Tween-20 and 100 μL of substrate (3.3′,5.5′-tetramethylbenzidine (TMB) dihydrochloride, Sigma, T8768) prepared according to the manufacturer’s instructions. Before measuring the optical density, the reaction was stopped using 0.5 M Н2SO4. The optical density of the solution was determined at λ = 450 nm using a tablet spectrophotometer (TECAN Safire). The data obtained were processed and imported into the HTSCalc program.
(§2) For compounds 2a–c,q, the IC50 value (μmol L^–1) was calculated from ten concentration points (in triplicate dilution) obtained twice. The data were analyzed using GraphPad Prism software (v. 3.1).

ALK = ALK (Homo sapiens, UniProt Q9UM73); assay: Kinase inhibition ELISA, ALK; type: biochemical; conditions: 10 μM test compound, 150 μM ATP
Description: as §1

NPM1-ALK = molecular target: T2, NPM1-ALK (Homo sapiens, UniProt Q9UM73); assay: Kinase inhibition ELISA, NPM1-ALK; type: biochemical; conditions: for inhibition at 10 µM: 10 μM test compound, 150 μM ATP; for IC50: ten concentration points
T2 construct: NPM1 (nucleophosmin, P06748) fusion partner
Description: (§3) Study of inhibitory activity. […] The enzymatic reaction was stopped with a buffer containing 20 mM HEPES (Sigma, H4034), pH 7.5, and 150 mM EDTA (Sigma, E5513). […] Incubation was carried out for 1 h at room temperature. […] After completion of each incubation step (60 min at room temperature (~20 °C) and continuous stirring), the plates were washed three times from unbound antibody molecules with a PBS solution with Tween-20 and 100 μL of substrate (3.3′,5.5′-tetramethylbenzidine (TMB) dihydrochloride, Sigma, T8768) prepared according to the manufacturer’s instructions. Before measuring the optical density, the reaction was stopped using 0.5 M Н2SO4. The optical density of the solution was determined at λ = 450 nm using a tablet spectrophotometer (TECAN Safire). The data obtained were processed and imported into the HTSCalc program.
(§4) The data were analyzed using GraphPad Prism software (v. 3.1).

cRAF[Y340D][Y341D] = cRAF[Y340D][Y341D] (Homo sapiens, UniProt P04049, Y340D/Y341D); assay: Kinase inhibition ELISA, cRAF[Y340D][Y341D]; type: biochemical; conditions: for inhibition at 10 µM: 10 μM test compound, 150 μM ATP; for IC50: ten concentration points
Description: as §3, §4

EGFR[L858R][T790] = EGFR[L858R][T790] (Homo sapiens, UniProt P00533, L858R/T790M); assay: Kinase inhibition ELISA, EGFR[L858R][T790]; type: biochemical; conditions: 10 μM test compound, 150 μM ATP
Description: as §1

JAK2 = JAK2 (Homo sapiens, UniProt O60674); assay: Kinase inhibition ELISA, JAK2; type: biochemical; conditions: 10 μM test compound, 150 μM ATP
Description: as §1

[1] = system: protein kinases NPM1-ALK, ALK, EGFR[L858R][T790], cRAF[Y340D][Y341D], JAK2, and JAK3; assay: Kinase inhibition ELISA, summary over the studied protein kinases; type: biochemical, human; conditions: primary screening, 10 μM test compound
Description: Study of inhibitory activity. The kinase activity was determined by enzyme-linked immunosorbent assay (ELISA) in polypropylene plates (Costar, 3363) in reaction buffer (20 mM HEPES, pH 7.5, 15 mM MgCl2, 2 mM DTT, 0.2 mM Na3VO4, 0.005% Triton X-100) for 60 min at 30 °C with vigorous stirring. The final concentration of the reaction components: 0.05 μg mL^–1 of the corresponding kinase, 5 nM Histon H3 biotinylated substrate (1–21) (Anaspec, 61702), 150 μM ATP (Sigma, A6419), 10 μM test compound, 5% DMSO. The enzymatic reaction was stopped with a buffer containing 20 mM HEPES (Sigma, H4034), pH 7.5, and 150 mM EDTA (Sigma, E5513). Further, to detect the phosphorylated substrate, the reaction mixture was transferred to pre-prepared plates (Nunc, 468667) coated with neutravidin (1 ng per well; Pierce, 31000) and treated with bovine serum albumin (BSA) to block non-specific binding sites. Incubation was carried out for 1 h at room temperature. […] The optical density of the solution was determined at λ = 450 nm using a tablet spectrophotometer (TECAN Safire). […]
as §2

cRAF[Y340D][Y341D], sequence (P04049 whole entry Y340D/Y341D): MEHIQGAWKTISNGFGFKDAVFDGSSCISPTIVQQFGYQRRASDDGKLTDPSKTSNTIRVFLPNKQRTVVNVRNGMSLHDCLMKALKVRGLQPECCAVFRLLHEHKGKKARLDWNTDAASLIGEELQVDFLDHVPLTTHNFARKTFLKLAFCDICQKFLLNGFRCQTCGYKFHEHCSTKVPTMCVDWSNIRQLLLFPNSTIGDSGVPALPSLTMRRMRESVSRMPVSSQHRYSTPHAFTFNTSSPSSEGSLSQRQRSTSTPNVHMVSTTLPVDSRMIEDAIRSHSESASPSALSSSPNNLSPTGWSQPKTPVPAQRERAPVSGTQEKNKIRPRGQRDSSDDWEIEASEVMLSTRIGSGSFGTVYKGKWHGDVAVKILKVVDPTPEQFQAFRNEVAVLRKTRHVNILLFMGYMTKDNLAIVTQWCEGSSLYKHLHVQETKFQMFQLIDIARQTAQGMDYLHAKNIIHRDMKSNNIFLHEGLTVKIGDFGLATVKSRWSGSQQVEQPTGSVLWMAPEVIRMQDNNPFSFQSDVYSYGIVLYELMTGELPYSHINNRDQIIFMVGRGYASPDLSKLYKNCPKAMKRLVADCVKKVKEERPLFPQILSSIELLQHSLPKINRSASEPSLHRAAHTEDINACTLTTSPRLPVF
EGFR[L858R][T790], sequence (P00533 669-1210 T790M/L858R limits assumed): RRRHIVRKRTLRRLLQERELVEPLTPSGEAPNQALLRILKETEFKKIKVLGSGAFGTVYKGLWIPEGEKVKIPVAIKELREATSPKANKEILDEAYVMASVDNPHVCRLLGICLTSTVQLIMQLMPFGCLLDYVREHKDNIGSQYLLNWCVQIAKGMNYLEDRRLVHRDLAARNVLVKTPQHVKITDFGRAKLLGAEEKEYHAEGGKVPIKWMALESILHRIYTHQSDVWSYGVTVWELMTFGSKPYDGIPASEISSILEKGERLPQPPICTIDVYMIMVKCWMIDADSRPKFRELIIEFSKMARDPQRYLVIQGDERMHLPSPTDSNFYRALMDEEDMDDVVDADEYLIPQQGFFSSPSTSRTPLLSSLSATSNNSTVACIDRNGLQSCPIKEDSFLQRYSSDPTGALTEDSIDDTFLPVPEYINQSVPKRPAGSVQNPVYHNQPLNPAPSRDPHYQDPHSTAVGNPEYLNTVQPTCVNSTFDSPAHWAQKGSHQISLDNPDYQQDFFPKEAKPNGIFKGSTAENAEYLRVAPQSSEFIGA
JAK2, sequence (O60674 whole entry): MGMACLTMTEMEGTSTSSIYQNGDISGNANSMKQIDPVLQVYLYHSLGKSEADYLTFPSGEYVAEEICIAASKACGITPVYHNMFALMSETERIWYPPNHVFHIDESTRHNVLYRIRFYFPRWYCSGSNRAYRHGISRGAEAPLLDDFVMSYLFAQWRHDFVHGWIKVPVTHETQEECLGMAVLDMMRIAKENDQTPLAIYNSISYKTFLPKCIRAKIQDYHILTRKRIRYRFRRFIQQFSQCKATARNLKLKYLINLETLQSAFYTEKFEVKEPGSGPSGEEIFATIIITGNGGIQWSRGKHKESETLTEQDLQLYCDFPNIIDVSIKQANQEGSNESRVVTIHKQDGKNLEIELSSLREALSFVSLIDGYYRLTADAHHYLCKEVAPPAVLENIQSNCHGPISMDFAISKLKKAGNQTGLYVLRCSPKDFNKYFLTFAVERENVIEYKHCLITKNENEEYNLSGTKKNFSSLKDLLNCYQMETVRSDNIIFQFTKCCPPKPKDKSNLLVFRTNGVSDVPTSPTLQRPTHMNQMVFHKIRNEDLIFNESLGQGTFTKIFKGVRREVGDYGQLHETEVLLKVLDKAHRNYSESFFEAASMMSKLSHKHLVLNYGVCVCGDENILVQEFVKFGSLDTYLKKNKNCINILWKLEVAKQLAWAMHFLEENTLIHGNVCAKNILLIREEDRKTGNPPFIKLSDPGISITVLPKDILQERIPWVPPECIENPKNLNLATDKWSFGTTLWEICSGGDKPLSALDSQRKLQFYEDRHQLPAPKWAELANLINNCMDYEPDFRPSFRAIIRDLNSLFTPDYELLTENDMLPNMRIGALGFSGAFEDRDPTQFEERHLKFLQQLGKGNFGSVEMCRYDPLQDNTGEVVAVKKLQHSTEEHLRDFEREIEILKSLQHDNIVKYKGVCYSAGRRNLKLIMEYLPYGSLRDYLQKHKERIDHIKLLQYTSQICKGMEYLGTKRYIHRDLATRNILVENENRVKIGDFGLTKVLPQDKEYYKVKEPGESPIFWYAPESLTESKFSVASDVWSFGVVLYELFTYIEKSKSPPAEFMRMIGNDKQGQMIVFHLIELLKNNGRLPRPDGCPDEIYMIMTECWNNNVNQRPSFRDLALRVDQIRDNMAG
T2 sequence (Q9UM73 whole entry, looked up, the tested form may be a part): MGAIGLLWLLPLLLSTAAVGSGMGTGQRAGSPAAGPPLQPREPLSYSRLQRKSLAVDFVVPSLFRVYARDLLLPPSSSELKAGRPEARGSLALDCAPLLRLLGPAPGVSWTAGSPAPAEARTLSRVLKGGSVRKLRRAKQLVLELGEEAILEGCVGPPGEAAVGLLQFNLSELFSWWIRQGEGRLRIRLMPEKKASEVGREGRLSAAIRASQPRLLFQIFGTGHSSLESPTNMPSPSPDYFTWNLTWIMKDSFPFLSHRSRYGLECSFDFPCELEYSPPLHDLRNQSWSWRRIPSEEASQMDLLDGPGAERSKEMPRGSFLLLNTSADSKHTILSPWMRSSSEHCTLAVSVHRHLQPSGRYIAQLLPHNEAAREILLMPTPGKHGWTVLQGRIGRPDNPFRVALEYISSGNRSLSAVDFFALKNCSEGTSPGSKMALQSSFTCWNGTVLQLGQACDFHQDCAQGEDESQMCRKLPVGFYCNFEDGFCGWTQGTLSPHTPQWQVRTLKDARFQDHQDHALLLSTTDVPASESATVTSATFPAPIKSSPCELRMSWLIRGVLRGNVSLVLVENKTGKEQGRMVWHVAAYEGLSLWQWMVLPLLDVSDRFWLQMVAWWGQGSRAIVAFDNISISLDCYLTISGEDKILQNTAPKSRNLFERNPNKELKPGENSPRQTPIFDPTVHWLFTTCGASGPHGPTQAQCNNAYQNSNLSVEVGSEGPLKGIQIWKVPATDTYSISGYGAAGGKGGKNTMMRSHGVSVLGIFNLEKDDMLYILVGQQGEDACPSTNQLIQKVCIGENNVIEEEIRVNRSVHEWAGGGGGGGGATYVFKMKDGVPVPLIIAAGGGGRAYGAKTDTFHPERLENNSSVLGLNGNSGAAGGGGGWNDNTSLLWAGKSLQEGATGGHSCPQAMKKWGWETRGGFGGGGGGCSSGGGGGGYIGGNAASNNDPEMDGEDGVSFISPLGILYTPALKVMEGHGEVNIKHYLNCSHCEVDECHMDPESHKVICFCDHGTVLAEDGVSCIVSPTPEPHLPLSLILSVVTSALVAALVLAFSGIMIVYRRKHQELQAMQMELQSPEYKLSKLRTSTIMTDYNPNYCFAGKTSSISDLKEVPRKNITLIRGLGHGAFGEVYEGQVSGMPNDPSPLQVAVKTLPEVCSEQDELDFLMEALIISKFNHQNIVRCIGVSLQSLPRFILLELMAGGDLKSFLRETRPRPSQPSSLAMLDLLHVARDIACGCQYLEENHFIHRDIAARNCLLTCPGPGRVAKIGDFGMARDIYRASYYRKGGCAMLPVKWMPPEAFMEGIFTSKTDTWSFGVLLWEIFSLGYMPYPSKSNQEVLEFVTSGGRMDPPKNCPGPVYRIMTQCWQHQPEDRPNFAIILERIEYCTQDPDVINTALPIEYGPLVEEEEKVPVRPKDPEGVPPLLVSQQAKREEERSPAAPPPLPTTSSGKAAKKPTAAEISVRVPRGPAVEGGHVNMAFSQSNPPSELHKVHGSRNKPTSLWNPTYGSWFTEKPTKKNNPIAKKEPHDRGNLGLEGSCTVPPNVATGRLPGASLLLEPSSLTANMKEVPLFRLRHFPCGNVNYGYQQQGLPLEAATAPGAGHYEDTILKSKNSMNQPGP

Compound | inhibition at 10 µM (JAK3) [%] | IC50 (JAK3) [nM] | inhibition at 10 µM (ALK) [%] | melting point [°C] | inhibition at 10 µM (NPM1-ALK) [%] | IC50 (NPM1-ALK) [nM] | inhibition at 10 µM (cRAF[Y340D][Y341D]) [%] | IC50 (cRAF[Y340D][Y341D]) [nM] | inhibition at 10 µM (EGFR[L858R][T790]) [%] | inhibition at 10 µM (JAK2) [%] | inhibitory activity against the studied protein kinases (in words) [1]
CN1c2ccc(C(=S)N3CCOCC3)cc2-c2c(ssc2=S)C1(C)C [2a, 4,4,5-Trimethyl-8-(morpholin-4-ylcarbonothioyl)-4,5-dihydro-1H-[1,2]dithiolo[3,4-c]quinoline-1-thione] | 96 | 360 | 84 | 106 to 107 | 87 | 540 | 93 | 6570 | 82 | 81 | –
CC1(C)c2ssc(=S)c2-c2cc(C(=S)N3CCOCC3)ccc2N1Cc1ccccc1 [2c, 5-Benzyl-4,4-dimethyl-8-(morpholin-4-ylcarbonothioyl)-4,5-dihydro-1H-[1,2]dithiolo[3,4-c]quinoline-1-thione] | 95 | 410 | 77 | – | 75 | – | 93 | 780 | 88 | 76 | –
COc1ccc2c(c1)-c1c(ssc1=S)C(C)(C)N2C(=O)CN1C(=O)CCC1=O [2j, 1-[2-(8-Methoxy-4,4-dimethyl-1-thioxo-1,4-dihydro-5H-[1,2]dithiolo[3,4-c]quinolin-5-yl)-2-oxoethyl]pyrrolidine-2,5-dione] | 39 | – | 7 | 201 to 202 | 56 | – | 5 | – | 9 | 11 | –
CC1(C)c2ssc(=S)c2-c2cc(C(=S)N3CCCCC3)ccc2N1Cc1ccccc1 [2d, 5-Benzyl-4,4-dimethyl-8-(piperidin-1-ylcarbonothioyl)-4,5-dihydro-1H-[1,2]dithiolo[3,4-c]quinoline-1-thione] | 69 | – | 39 | – | 41 | – | 61 | – | 12 | 33 | –
CC1(C)c2ssc(=S)c2-c2cc3c(cc2N1C(=O)c1ccccc1F)OCCO3 [2m, 5-(2-Fluorobenzoyl)-4,4-dimethyl-4,5,8,9-tetrahydro-1H-[1,4]dioxino[2,3-g][1,2]dithiolo[3,4-c]quinoline-1-thione] | 23 | – | -4 | 234 to 235 | 6 | – | 35 | – | 10 | 1 | very low activity
COc1ccc2c(c1)N(C(=O)c1sc3ccccc3c1Cl)C(C)(C)c1ssc(=S)c1-2 [2l, 5-[(3-Chloro-1-benzothien-2-yl)carbonyl]-7-methoxy-4,4-dimethyl-4,5-dihydro-1H-[1,2]dithiolo[3,4-c]quinoline-1-thione] | 86 | – | 75 | 218 to 219 | 67 | – | 81 | – | 24 | 53 | –
COc1ccc2c(c1)-c1c(ssc1=S)C(C)(C)N2C(=O)CN1C(=O)C2CCCCC2C1=O (stereo not shown) [2k, 2-[2-(8-Methoxy-4,4-dimethyl-1-thioxo-1,4-dihydro-5H-[1,2]dithiolo[3,4-c]quinolin-5-yl)-2-oxoethyl]hexahydro-1H-isoindole-1,3(2H)-dione] | 26 | – | 18 | 205 to 206 | 27 | – | 41 | – | -2 | 3 | very low activity
COc1ccc2c(c1)-c1c(ssc1=S)C(C)(C)N2C(=O)c1cccs1 [2i, 8-Methoxy-4,4-dimethyl-5-(2-thienylcarbonyl)-4,5-dihydro-1H-[1,2]dithiolo[3,4-c]quinoline-1-thione] | 89 | – | 81 | 158 to 159 | 77 | – | 76 | – | 24 | 64 | –
CN1c2ccc(C(=S)N3CCN(c4ccccc4)CC3)cc2-c2c(ssc2=S)C1(C)C [2b, 4,4,5-Trimethyl-8-[(4-phenylpiperazin-1-yl)carbonothioyl]-4,5-dihydro-1H-[1,2]dithiolo[3,4-c]quinoline-1-thione] | 95 | 380 | 86 | – | 90 | 250 | 92 | – | 84 | 83 | –
COc1cccc(N=c2ssc3c2-c2cccc4c2N(C(=O)C4=O)C3(C)C)c1 [2q, 10-[(3-Methoxyphenyl)imino]-7,7-dimethyl-7,10-dihydro[1,2]dithiolo[3,4-c]pyrrolo[3,2,1-ij]quinoline-4,5-dione] | 99 | 460 | 51 | 195 to 196 | 36 | – | 92 | 5340 | 71 | 9 | –
CC1(C)Nc2cc3c(cc2-c2c1ssc2=S)OCCO3 [2h, 4,4-dimethyl-4,5,8,9-tetrahydro-1H-[1,4]dioxino[2,3-g][1,2]dithiolo[3,4-c]quinoline-1-thione] | 36 | – | 49 | 238 to 239 | 42 | – | 44 | – | 27 | 10 | –

— publication PMC9268448, “Synthesis of 4,5-Dihydro-1H-[1,2]dithiolo[3,4-c]quinoline-1-thione Derivatives and Their Application as Protein Kinase Inhibitors” (Molecules, 2022)
